Where two headings read alike, the source gives them in different places.
`CCO[C@@H]1c2nc(cs2)-c2ccc3c(c2)c(c(-c2cc(N4CCN(C(=O)OCc5ccccc5)CC4)cnc2[C@H](C)OC)n3CCOC(C)C)CC(C)(C)COC(=O)[C@@H]2CCCN(N2)C(=O)[C@H]1NC(=O)OC(C)(C)C` gave a ring closure, yield of all isomers (from CCO[C@H](c1nc(Br)cs1)[C@H](NC(=O)OC(C)(C)C)C(=O)N1CCC[C@@H](C(=O)OCC(C)(C)Cc2c(-c3cc(N4CCN(C(=O)OCc5ccccc5)CC4)cnc3[C@H](C)OC)n(CCOC(C)C)c3ccc(B4OC(C)(C)C(C)(C)O4)cc23)N1, cc_pd bond, Pd(dtbpf)Cl2, K3PO4, toluene, 16.0 mM, 65.0 °C, 2.0 h) of 44%.

`CC1(C)COC(=O)[C@@H]2CCCN(N2)C(=O)[C@@H](NC(=O)OC(C)(C)C)Cc2nc(cs2)-c2ccc3c(c2)c(c(-c2ccnc(N4CCN(C(=O)OCc5ccccc5)CC4)c2)n3C(C)(C)C#N)C1` gave a ring closure, yield of all isomers (from CC(C)(CO)Cc1c(-c2ccnc(N3CCN(C(=O)OCc4ccccc4)CC3)c2)n(C(C)(C)C#N)c2ccc(-c3csc(C[C@H](NC(=O)OC(C)(C)C)C(=O)N4CCC[C@@H](C(=O)O)N4)n3)cc12, ester bond, EDCI/HOBT/DIPEA, DCM, 1.05 mM, 25.0 °C, 16.0 h) of 52%.

For `CCn1c(-c2cccnc2[C@H](C)OC)c2c3cc(ccc31)C1=CC(O[Si](c3ccccc3)(c3ccccc3)C(C)(C)C)CN(C1)C[C@H](NC(=O)OC(C)(C)C)C(=O)N1CCC[C@H](N1)C(=O)OCC(C)(C)C2` (some centres unmarked), the ring closure, yield of all isomers (from CCn1c(-c2cccnc2[C@H](C)OC)c(CC(C)(C)COC(=O)[C@@H]2CCCN(C(=O)[C@H](CN3CC(Br)=CC(O[Si](c4ccccc4)(c4ccccc4)C(C)(C)C)C3)NC(=O)OC(C)(C)C)N2)c2cc(B3OC(C)(C)C(C)(C)O3)ccc21, cc_pd bond, Pd(dppf)Cl2, K2CO3, toluene, 20.0 mM, 65.0 °C, 2.0 h) was 42%.

In the case of `CCn1c(-c2cc(N3CCN(C(=O)OCc4ccccc4)CC3)cnc2[C@H](C)OC)c2c3cc(ccc31)-c1csc(n1)C[C@H](NC(=O)OC(C)(C)C)C(=O)N1CCC[C@H](N1)C(=O)OCC(C)(C)C2`, the ring closure, yield of all isomers (from CCn1c(-c2cc(N3CCN(C(=O)OCc4ccccc4)CC3)cnc2[C@H](C)OC)c(CC(C)(C)CO)c2cc(-c3csc(C[C@H](NC(=O)OC(C)(C)C)C(=O)N4CCC[C@@H](C(=O)O)N4)n3)ccc21, ester bond, EDCI/HOBt/DIPEA, MeCN, 10.34 mM, 25.0 °C, 16.0 h) is reported as 54.8%.

With `CCn1c(-c2cccnc2[C@H](C)OC)c2c3cc(ccc31)-c1csc(n1)C(N(C)C)[C@H](NC(=O)OCC1c3ccccc3-c3ccccc31)C(=O)N1CCC[C@H](N1)C(=O)OCC(C)(C)C2` (some centres unmarked) the ring closure, yield of all isomers (from CCn1c(-c2cccnc2[C@H](C)OC)c(CC(C)(C)COC(=O)[C@@H]2CCCN(C(=O)[C@@H](NC(=O)OCC3c4ccccc4-c4ccccc43)C(c3nc(Br)cs3)N(C)C)N2)c2cc(B3OC(C)(C)C(C)(C)O3)ccc21, cc_pd bond, Pd(dtbpf)Cl2, toluene, 27.3 mM, 60.0 °C, 1.0 h) was 19%.

`CCO[C@@H]1c2nc(cs2)-c2ccc3c(c2)c(c(-c2cccnc2[C@H](C)OC)n3CC)CC(C)(C)COC(=O)[C@@H]2CCCN(N2)C(=O)[C@H]1NC(=O)OC(C)(C)C` showed a ring closure, yield of all isomers (from CCO[C@H](c1nc(Br)cs1)[C@H](NC(=O)OC(C)(C)C)C(=O)N1CCC[C@@H](C(=O)OCC(C)(C)Cc2c(-c3cccnc3[C@H](C)OC)n(CC)c3ccc(B4OC(C)(C)C(C)(C)O4)cc23)N1, cc_pd bond, Pd(DTBpf)Cl2/K3PO4, toluene, 26.7 mM, 60.0 °C, 1.0 h) of 31%.

In the case of `CCn1c(-c2cccnc2[C@H](C)OC)c2c3cc(ccc31)-c1csc(n1)[C@@H](OCC(F)F)[C@H](NC(=O)OC(C)(C)C)C(=O)N1CCC[C@H](N1)C(=O)OCC(C)(C)C2`, the ring closure, yield of all isomers (from CCn1c(-c2cccnc2[C@H](C)OC)c(CC(C)(C)COC(=O)[C@@H]2CCCN(C(=O)[C@@H](NC(=O)OC(C)(C)C)[C@H](OCC(F)F)c3nc(Br)cs3)N2)c2cc(B3OC(C)(C)C(C)(C)O3)ccc21, cc_pd bond, Pd(DtBPF)Cl2, K3PO4, toluene, 10.0 mM, 60.0 °C, 1.0 h) is reported as 59%.

With `CCO[C@@H]1c2nc(cs2)-c2ccc3c(c2)c(c(-c2cc(C4=CCN(C(=O)OCc5ccccc5)CC4)cnc2[C@H](C)OC)n3CC)CC(C)(C)COC(=O)[C@@H]2CCCN(N2)C(=O)[C@H]1NC(=O)OC(C)(C)C` the ring closure, yield of all isomers (from CCO[C@H](c1nc(Br)cs1)[C@H](NC(=O)OC(C)(C)C)C(=O)N1CCC[C@@H](C(=O)OCC(C)(C)Cc2c(-c3cc(C4=CCN(C(=O)OCc5ccccc5)CC4)cnc3[C@H](C)OC)n(CC)c3ccc(B4OC(C)(C)C(C)(C)O4)cc23)N1, cc_pd bond, Pd(DtBPF)Cl2, K3PO4, toluene, 40.7 mM, 70.0 °C, 1.0 h) was 39%.

Molecule `CCn1c(-c2cccnc2[C@H](C)OC)c2c3cc(ccc31)-c1csc(n1)[C@@H](OCCN(C)C)[C@H](NC(=O)OC(C)(C)C)C(=O)N1CCC[C@H](N1)C(=O)OCC(C)(C)C2` has a ring closure, yield of all isomers (from CCn1c(-c2cccnc2[C@H](C)OC)c(CC(C)(C)COC(=O)[C@@H]2CCCN(C(=O)[C@@H](NC(=O)OC(C)(C)C)[C@H](OCCN(C)C)c3nc(Br)cs3)N2)c2cc(B3OC(C)(C)C(C)(C)O3)ccc21, cc_pd bond, Pd(dtbpf)Cl2, K3PO4, toluene, 57.0 mM, 60.0 °C, 4.0 h) of 50%.

Molecule `CCO[C@@H]1c2nc(cs2)-c2ccc3c(c2)c(c(-c2cc(C4=CC5COCC(C4)N5C(=O)OCC4c5ccccc5-c5ccccc54)cnc2[C@H](C)OC)n3CC)CC(C)(C)COC(=O)[C@@H]2CCCN(N2)C(=O)[C@H]1NC(=O)OC(C)(C)C` has a ring closure, yield of all isomers (from CCO[C@H](c1nc(Br)cs1)[C@H](NC(=O)OC(C)(C)C)C(=O)N1CCC[C@@H](C(=O)OCC(C)(C)Cc2c(-c3cc(C4=CC5COCC(C4)N5C(=O)OCC4c5ccccc5-c5ccccc54)cnc3[C@H](C)OC)n(CC)c3ccc(B4OC(C)(C)C(C)(C)O4)cc23)N1, cc_pd bond, Pd(dppf)Cl2.DCM, toluene, 205.0 mM, 80.0 °C, 3.0 h) of 49%.

Molecule `CCn1c(-c2cccnc2[C@H](C)OC)c2c3cc(ccc31)C1=CC[C@H](COC)N(C1)C[C@H](NC(=O)OC(C)(C)C)C(=O)N1CCC[C@H](N1)C(=O)OCC(C)(C)C2` has a ring closure, yield of all isomers (from CCn1c(-c2cccnc2[C@H](C)OC)c(CC(C)(C)COC(=O)[C@@H]2CCCN(C(=O)[C@H](CN3CC(Br)=CC[C@@H]3COC)NC(=O)OC(C)(C)C)N2)c2cc(B3OC(C)(C)C(C)(C)O3)ccc21, cc_pd bond, Pd(dppf)Cl2, K3PO4, toluene, 116.0 mM, 70.0 °C, 3.0 h) of 30%.

Molecule `CCn1c(-c2cccnc2[C@H](C)OC)c2c3cc(ccc31)-c1csc(n1)C[C@H](NC(=O)OC(C)(C)C)C(=O)N1CCC[C@H](N1)C(=O)OCC(C)(C)C2` has a ring closure, yield of all isomers (from CCn1c(-c2cccnc2[C@H](C)OC)c(CC(C)(C)CO)c2cc(-c3csc(C[C@H](NC(=O)OC(C)(C)C)C(=O)N4CCC[C@@H](C(=O)O)N4)n3)ccc21, ester bond, EDCI/HOBt/DIPEA, DCM, 12.65 mM, 25.0 °C, 16.0 h) of 81%.

Molecule `CCO[C@@H]1c2nc(cs2)-c2ccc3c(c2)c(c(-c2cc([C@@H]4C[C@H]5COC[C@@H](C4)N5C(=O)OCC4c5ccccc5-c5ccccc54)cnc2[C@H](C)OC)n3CC)CC(C)(C)COC(=O)[C@@H]2CCCN(N2)C(=O)[C@H]1NC(=O)OC(C)(C)C` has a ring closure, yield of all isomers (from CCO[C@H](c1nc(Br)cs1)[C@H](NC(=O)OC(C)(C)C)C(=O)N1CCC[C@@H](C(=O)OCC(C)(C)Cc2c(-c3cc([C@@H]4C[C@H]5COC[C@@H](C4)N5C(=O)OCC4c5ccccc5-c5ccccc54)cnc3[C@H](C)OC)n(CC)c3ccc(B4OC(C)(C)C(C)(C)O4)cc23)N1, cc_pd bond, Pd(DtBPF)Cl2, toluene, 10.4 mM, 80.0 °C, 3.0 h) of 65%.

Molecule `CCO[C@@H]1c2nc(cs2)-c2ccc3c(c2)c(c(-c2cc(N4CCN(C(=O)OCc5ccccc5)CC4)cnc2[C@H](C)OC)n3CCOC(C)C)CC2(CC2)COC(=O)[C@@H]2CCCN(N2)C(=O)[C@H]1NC(=O)OC(C)(C)C` has a ring closure, yield of all isomers (from CCO[C@H](c1nc(Br)cs1)[C@H](NC(=O)OC(C)(C)C)C(=O)N1CCC[C@@H](C(=O)OCC2(Cc3c(-c4cc(N5CCN(C(=O)OCc6ccccc6)CC5)cnc4[C@H](C)OC)n(CCOC(C)C)c4ccc(B5OC(C)(C)C(C)(C)O5)cc34)CC2)N1, cc_pd bond, XPhos-Pd-G3/XPhos, K3PO4, toluene, 28.0 mM, 65.0 °C, 2.0 h) of 27%.

For `CCn1c(-c2cccnc2[C@H](C)OC)c2c3cc(ccc31)-c1csc(n1)[C@@H](OCC1=CCN(C(=O)OCc3ccccc3)CC1)[C@H](NC(=O)OC(C)(C)C)C(=O)N1CCC[C@H](N1)C(=O)OCC(C)(C)C2`, the ring closure, yield of all isomers (from CCn1c(-c2cccnc2[C@H](C)OC)c(CC(C)(C)COC(=O)[C@@H]2CCCN(C(=O)[C@@H](NC(=O)OC(C)(C)C)[C@H](OCC3=CCN(C(=O)OCc4ccccc4)CC3)c3nc(Br)cs3)N2)c2cc(B3OC(C)(C)C(C)(C)O3)ccc21, cc_pd bond, Pd(dtbpf)Cl2, K3PO4, toluene, 60.0 °C, 2.0 h) was 32%.

Molecule `CC1(C)COC(=O)[C@@H]2CCCN(N2)C(=O)[C@@H](NC(=O)OC(C)(C)C)Cc2nc(cs2)-c2ccc3[nH]c(I)c(c3c2)C1` has a ring closure, yield of all isomers (from CC(C)(CO)Cc1c(I)[nH]c2ccc(-c3csc(C[C@H](NC(=O)OC(C)(C)C)C(=O)N4CCC[C@@H](C(=O)O)N4)n3)cc12, ester bond, EDCI/HOBt/DIPEA, DCM, 17.57 mM, 25.0 °C, 16.0 h) of 45.9%.

In the case of `CO[C@@H](C)c1ncccc1-c1c2c3cc(ccc3n1CCOC1CCOCC1)-c1csc(n1)C[C@H](NC(=O)OC(C)(C)C)C(=O)N1CCC[C@H](N1)C(=O)OCC(C)(C)C2`, the ring closure, yield of all isomers (from CO[C@@H](C)c1ncccc1-c1c(CC(C)(C)CO)c2cc(-c3csc(C[C@H](NC(=O)OC(C)(C)C)C(=O)N4CCC[C@@H](C(=O)O)N4)n3)ccc2n1CCOC1CCOCC1, ester bond, EDCI/HOBt, DIPEA, DCM, 7.0 mM, 25.0 °C, 16.0 h) is reported as 68%.

— EP4803147A2
